In patent publication US10022355B2, “Diaryl and arylheteroaryl urea derivatives as modulators of the 5-HT2A serotonin receptor useful for the prophylaxis and treatment of REM sleep behavior disorder” (Axovant Sciences GmbH, priority 2015, dated 2018):
Entries after “also recorded” stand apart in the source; their conditions may differ.

What was measured:
[1] = elderly patients; cited from earlier work
[2] = Completed Phase 1 and Phase 2 clinical studies of nelotanserin (originally for primary insomnia); assay type: in vivo, human
Experimental: Nelotanserin: Nelotanserin (RVT-102), previously known as APD-125, is a potent and selective 5HT2a receptor inverse agonist, and is currently being developed as an oral treatment for REM sleep behavior disorder in patients with DLB. Originally being developed for primary insomnia, seven clinical studies have been completed to date that included five Phase 1 and two Phase 2 studies, and 792 individuals have been exposed to nelotanserin over the dose range of 20 to 160 mg and up to 14 days.

SMILES | side effects [1] | sleep maintenance and consolidation ([2]; Phase 1 and Phase 2 studies) | slow wave sleep ([2]; Phase 1 and Phase 2 studies) | safety and tolerability profile ([2]; five Phase 1 and two Phase 2 studies, 792 individuals exposed, dose range 20 to 160 mg, up to 14 days) | number of sleep phase transitions ([2]; previous clinical studies)
O=C1CN=C(c2ccccc2Cl)c2cc([N+](=O)[O-])ccc2N1 [Clonazepam, clonazepam] | confusion, daytime sedation, and increased risk of falls |  |  |  | 
COc1ccc(NC(=O)Nc2ccc(F)cc2F)cc1-c1c(Br)cnn1C [nelotanserin] |  | improves sleep maintenance and consolidation | increases slow wave sleep | favorable safety and tolerability profile; also recorded: acceptable safety and tolerability profile | reduces the number of sleep phase transitions
